Test results taken from US9242933B2 (AbbVie Deutschland GmbH & Co. KG, priority 2007, dated 2016).
pEC50: −log10 of the molar value.

Each compound was assayed against T1, human mGlu2 receptor (Homo sapiens, UniProt Q14416) (assay: FLIPR intracellular Ca2+ assay, potentiation of glutamate response in HEK293 clone expressing mGlu2 receptor, rGLAST and Galpha16). Settings: 1 μM glutamate added ten minutes after test compound, HEK293 cells with human mGlu2, rGLAST, Galpha16, read-out: EC50 values of potentiation effect to glutamate.
T1 construct: expressed in transfected cells; host or cells: HEK293
T1 sequence (Q14416 19-872): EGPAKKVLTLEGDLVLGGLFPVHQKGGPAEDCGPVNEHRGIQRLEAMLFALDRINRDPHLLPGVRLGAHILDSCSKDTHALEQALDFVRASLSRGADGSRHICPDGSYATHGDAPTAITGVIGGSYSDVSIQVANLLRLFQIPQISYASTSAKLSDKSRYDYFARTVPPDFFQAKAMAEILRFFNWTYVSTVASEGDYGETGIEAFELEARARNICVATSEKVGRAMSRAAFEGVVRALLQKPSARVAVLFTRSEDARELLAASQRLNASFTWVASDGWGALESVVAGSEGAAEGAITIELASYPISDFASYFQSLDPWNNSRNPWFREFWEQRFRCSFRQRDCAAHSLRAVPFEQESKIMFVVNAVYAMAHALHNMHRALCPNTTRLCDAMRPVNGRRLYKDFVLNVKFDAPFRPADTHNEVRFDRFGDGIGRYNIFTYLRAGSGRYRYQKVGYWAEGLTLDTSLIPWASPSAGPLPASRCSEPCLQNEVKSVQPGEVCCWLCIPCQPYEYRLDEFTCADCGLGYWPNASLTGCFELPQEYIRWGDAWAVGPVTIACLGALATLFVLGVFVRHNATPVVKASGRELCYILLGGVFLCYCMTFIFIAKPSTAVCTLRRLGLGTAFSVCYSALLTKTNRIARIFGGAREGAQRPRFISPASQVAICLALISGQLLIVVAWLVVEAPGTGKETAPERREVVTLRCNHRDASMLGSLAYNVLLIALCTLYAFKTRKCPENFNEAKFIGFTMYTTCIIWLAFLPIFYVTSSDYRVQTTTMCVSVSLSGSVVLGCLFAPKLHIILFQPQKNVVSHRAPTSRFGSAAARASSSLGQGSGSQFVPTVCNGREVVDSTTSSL
Type: cell-based
Source text: The compounds of the present invention can be tested e.g. by evaluating intracellular Ca^2+ concentrations in cells permanently expressing human mGlu receptor, the rat glutamate transporter rGLAST and the Galpha16 subunit of the G-protein complex under standard conditions in a fluorometric imaging plate reader (FLIPR, Molecular Devices, Union City, Calif. 94587, USA) by measuring the response of the cells to a test compound in the absence of presence of glutamate. The FLIPR assay is a common functional assay to monitor native or recombinant Galphaq-coupled receptors, and native or recombinant receptors normally linked to other G-protein signalling cascades, which are coupled to calcium through co-expression of an alpha subunit of a promiscuous or chimeric G-protein. In the assay the increase of intracellular calcium is measured through a calcium-dependent fluorescent dye (e.g. Fluo-4 AM) in the FLIPR instrument.
For the purpose of the present study, a cell line permanently expressing a human mGlu receptor, such as the mGlu2 receptor, the rat glutamate transporter rGLAST and the GalphaG16 may be generated by transfection as described in the examples. For selection of a suitable cell clone and also the subsequent measurements, the selected clone the cells will be plated on suitable multiwell plates in a suitable medium (e.g. DMEM Glutamax (GIBCO #21885-025)/10% dialyzed FCS). Cells may be selected by gentamycin treatment as described in the examples. Cells will then be loaded with a suitable Ca^2+ sensitive fluorescence dye, e.g. with 2 μM Fluo-4 AM (Molecular Probes, F14201). Cells will then be washed with a suitable buffer (e.g. HEPES) and the thus treated plates will be measured in a fluorometric imaging plate reader (e.g. FLIPR, Molecular Devices, Union City, Calif. 94587, USA).
The compounds of the present invention were tested in the above-described FLIPR assay using the selected cell clone. Increased intracellular calcium levels were quantified following addition of test compound (agonism), as well as following addition of a submaximal concentration of glutamate (potentiation).
For the determination of the effect of the test compound by itself (agonism) or by increasing the response to a submaximal concentration (e.g. 1 μM) of glutamate (potentiation), the resulting signal is determined by subtraction of the background fluorescence from the maximal fluorescent peak height of the respective response. In the FLIPR instrument the compound is given to the cell and its fluorescence response quantified by the FLIPR instrument (agonism). The concentration at which the compound exerts half its maximal effect is named the ‘effective concentration 50’ or ‘EC50’. The maximal effect induced by the test substance is normalized to the maximal effect exerted by 100 μM glutamate (set at 100%).
After addition of the test compound to the plate, a submaximal concentration of glutamate (e.g. 1 μM glutamate) will be added. A potentiator enhances the response of the receptor to glutamate. The response to glutamate in the presence of test compound is quantified. The concentration at which the test compound is able to exert half its maximal potentiation effect to glutamate is named the ‘EC50’. The maximal response to the submaximal concentration of glutamate (e.g. 1 micromolar glutamate) in the presence of test compound is normalized to the maximal effect exerted by 100 micromolar glutamate (set at 100%). Least squares curve fitting with a four-parameter equation is then applied to the resulting dose-response curve to determine the resulting EC5O values (Graph Pad Prism).
For the purpose of the present study, a cell line permanently expressing the human mGlu2 receptor, the rat glutamate transporter rGLAST and the alpha subunit of G16 was generated by transfection. […]
`CCCC(=O)c1ccc(NCc2cn(-c3ccccc3)nc2-c2ccncc2)cc1` [Example 214, 1-{4-[(1-Phenyl-3-pyridin-4-yl-1H-pyrazol-4-ylmethyl)-amino]-phenyl}-butan-1-one] was tested, and the pEC50 was 5.00 to 6.00. Work on `CCCC(=O)c1ccc(NCc2n[nH]c3ccccc23)cc1` [Example 215, 1-{4-[(1H-Indazol-3-ylmethyl)-amino]-phenyl}-butan-1-one] yielded a pEC50 of 5.00 to 6.00. For `CCCC(=O)c1ccc(NCc2ccnn2C)cc1` [Example 216, 1-{4-[(2-Methyl-2H-pyrazol-3-ylmethyl)-amino]-phenyl}-butan-1-one], the pEC50 was 5.00 to 6.00. `CCCC(=O)c1ccc(NCc2c[nH]nc2-c2ccc(Cl)cc2)cc1` [Example 217, 1-(4-{[3-(4-Chloro-phenyl)-1H-pyrazol-4-ylmethyl]-amino}-phenyl)-butan-1-one] was tested, and the pEC50 was > 6.00. `CCCC(=O)c1ccc(NCc2c[nH]nc2-c2ccc(OC)c(OC)c2)cc1` [Example 218, 1-(4-{[3-(3,4-Dimethoxy-phenyl)-1H-pyrazol-4-ylmethyl]-amino}-phenyl)-butan-1-one] was tested, and the pEC50 was > 6.00. With `CCCC(=O)c1ccc(NCc2nn(C)c3ccccc23)cc1` [Example 219, 1-{4-[(1-Methyl-1H-indazol-3-ylmethyl)-amino]-phenyl}-butan-1-one] the pEC50 was 5.00 to 6.00. Work on `CCCC(=O)c1ccc(NCc2cnn(Cc3ccccc3)c2)cc1` [Example 220, 1-{4-[(1-Benzyl-1H-pyrazol-4-ylmethyl)-amino]-phenyl}-butan-1-one] yielded a pEC50 of 5.00 to 6.00. `CCCC(=O)c1ccc(NCc2cn(-c3ccccc3)nc2-c2ccc(F)cc2)cc1` [Example 221, 1-(4-{[3-(4-Fluorophenyl)-1-phenyl-1H-pyrazol-4-ylmethyl]-amino}-phenyl)-butan-1-one] gave a pEC50 of 5.00 to 6.00. In the case of `CCCC(=O)c1ccc(NCc2cn(-c3ccccc3)nc2-c2cccnc2)cc1` [Example 222, 1-{4-[(1-Phenyl-3-pyridin-3-yl-1H-pyrazol-4-ylmethyl)-amino]-phenyl}-butan-1-one], the pEC50 was 5.00 to 6.00. For `CCCC(=O)c1ccc(NCc2n[nH]c3ccc(OC)cc23)cc1` [Example 223, 1-{4-[(5-Methoxy-1H-indazol-3-ylmethyl)-amino]-phenyl}-butan-1-one], the pEC50 was 5.00 to 6.00. Compound `CCCC(=O)c1ccc(NCc2c(C)n[nH]c2C)cc1` [Example 224, 1-{4-[(3,5-Dimethyl-1H-pyrazol-4-ylmethyl)-amino]-phenyl}-butan-1-one] has a pEC50 of 5.00 to 6.00. `CCCC(=O)c1ccc(NCc2nc3ccccc3n2C)cc1` [Example 226, 1-{4-[(1-Methyl-1H-benzoimidazol-2-ylmethyl)-amino]-phenyl}-butan-1-one] gave a pEC50 of 5.00 to 6.00. With `CCCC(=O)c1ccc(NCc2c(C)noc2C)cc1` [Example 227, 1-{4-[(3,5-Dimethyl-isoxazol-4-ylmethyl)-amino]-phenyl}-butan-1-one] the pEC50 was 5.00 to 6.00. `CCCC(=O)c1ccc(NCc2cn(C)cn2)cc1` [Example 228, 1-{4-[(1-Methyl-1H-imidazol-4-ylmethyl)-amino]-phenyl}-butan-1-one] was tested, and the pEC50 was 5.00 to 6.00. `CCCC(=O)c1ccc(NCc2sc(C)nc2-c2ccccc2)cc1` [Example 233, 1-{4-[(2-Methyl-4-phenyl-thiazol-5-ylmethyl)-amino]-phenyl}-butan-1-one] showed a pEC50 of 5.00 to 6.00. In the case of `CCCC(=O)c1ccc(NCc2cnc(-c3ccccc3OC)s2)cc1` [Example 242, 1-(4-{[2-(2-Methoxy-phenyl)-thiazol-5-ylmethyl]-amino}-phenyl)-butan-1-one], the pEC50 was 5.00 to 6.00. Work on `CCCC(=O)c1ccc(NCc2cnc(-c3cccc(OC)c3)s2)cc1` [Example 243, 1-(4-{[2-(3-Methoxy-phenyl)-thiazol-5-ylmethyl]-amino}-phenyl)-butan-1-one] yielded a pEC50 of 5.00 to 6.00. Compound `CCCC(=O)c1ccc(NCc2nc(-c3cccs3)oc2C)cc1` [Example 245, 1-{4-[(5-Methyl-2-thiophen-2-yl-oxazol-4-ylmethyl)-amino]-phenyl}-butan-1-one] has a pEC50 of 5.00 to 6.00. Work on `CCCC(=O)c1ccc(NCc2cnc(-c3ccccc3)s2)cc1` [Example 246, 1-{4-[(2-Phenyl-thiazol-5-ylmethyl)-amino]-phenyl}-butan-1-one] yielded a pEC50 of 5.00 to 6.00. With `CCCC(=O)c1ccc(NCc2sc(Cl)nc2Cl)cc1` [Example 250, 1-{4-[(2,4-Dichloro-thiazol-5-ylmethyl)-amino]-phenyl}-butan-1-one] the pEC50 was 5.00 to 6.00. Work on `CCCC(=O)c1ccc(NCc2cc(-c3ccccc3F)no2)cc1` [Example 255, 1-(4-{[3-(2-Fluorophenyl)-isoxazol-5-ylmethyl]-amino}-phenyl)-butan-1-one] yielded a pEC50 of 5.00 to 6.00. `CCCC(=O)c1ccc(NCc2cnc(Oc3ccc(OC)cc3)s2)cc1` [Example 260, 1-(4-{[2-(4-Methoxy-phenoxy)-thiazol-5-ylmethyl]-amino}-phenyl)-butan-1-one] showed a pEC50 of 5.00 to 6.00. `CCCC(=O)c1ccc(NCc2csc(C(C)C)n2)cc1` [Example 268, 1-{4-[(2-Isopropyl-thiazol-4-ylmethyl)-amino]-phenyl}-butan-1-one] was tested, and the pEC50 was 5.00 to 6.00. In the case of `CCCOc1ccc(NCc2c[nH]nc2C(C)(C)C)cc1` [Example 273, (3-tert-Butyl-1H-pyrazol-4-ylmethyl)-(4-propoxy-phenyl)-amine], the pEC50 was 5.00 to 6.00. `CC(C)(C)c1n[nH]cc1CNc1ccc(OC(F)(F)Cl)cc1` [Example 281, (3-tert-Butyl-1H-pyrazol-4-ylmethyl)-[4-(chloro-difluoro-methoxy)-phenyl]-amine] was tested, and the pEC50 was 5.00 to 6.00. `CN1CCC(Oc2ccc(NCc3c[nH]nc3C(C)(C)C)cc2)CC1` [Example 284, (3-tert-Butyl-1H-pyrazol-4-ylmethyl)-[4-(1-methyl-piperidin-4-yloxy)-phenyl]-amine] was tested, and the pEC50 was 5.00 to 6.00. In the case of `CC(C)(C)c1n[nH]cc1CNc1ccc(OCc2ccccn2)cc1` [Example 285, (3-tert-Butyl-1H-pyrazol-4-ylmethyl)-[4-(pyridin-2-ylmethoxy)-phenyl]-amine], the pEC50 was 5.00 to 6.00. `CC(C)COc1ccc(NCc2c[nH]nc2C(C)(C)C)cc1` [Example 286, (3-tert-Butyl-1H-pyrazol-4-ylmethyl)-(4-isobutoxy-phenyl)-amine] was tested, and the pEC50 was 5.00 to 6.00. In the case of `CC(C)CCOc1ccc(NCc2c[nH]nc2C(C)(C)C)cc1` [Example 298, (3-tert-Butyl-1H-pyrazol-4-ylmethyl)-[4-(3-methyl-butoxy)-phenyl]-amine], the pEC50 was 5.00 to 6.00. `CCCC(=O)c1ccc(NCc2ccc(Cl)nc2Cl)cc1` [Example 307, 1-{4-[(2,6-Dichloro-pyridin-3-ylmethyl)-amino]-phenyl}-butan-1-one] gave a pEC50 of 5.00 to 6.00. In the case of `CCCC(=O)c1ccc(NCc2cccnc2OC(C)C)cc1` [Example 310, 1-{4-[(2-Isopropoxy-pyridin-3-ylmethyl)-amino]-phenyl}-butan-1-one], the pEC50 was 5.00 to 6.00. `CCCOc1ncccc1CNc1ccc(C(=O)CCC)cc1` [Example 311, 1-{4-[(2-Propoxy-pyridin-3-ylmethyl)-amino]-phenyl}-butan-1-one] gave a pEC50 of 5.00 to 6.00. Work on `CCCC(=O)c1ccc(NCc2ccc(N3CCCCC3)nc2)cc1` [Example 312, 1-{4-[(3,4,5,6-Tetrahydro-2H-[1,2′]bipyridinyl-5′-ylmethyl)-amino]-phenyl}-butan-1-one] yielded a pEC50 of 5.00 to 6.00. `CCCC(=O)c1ccc(NCc2ccc(OC3CCCC3)nc2)cc1` [Example 313, 1-{4-[(6-Cyclopentyloxy-pyridin-3-ylmethyl)-amino]-phenyl}-butan-1-one] gave a pEC50 of 5.00 to 6.00. For `CCCC(=O)c1ccc(NCc2ccc(OC)nc2OC)cc1` [Example 317, 1-{4-[(2,6-Dimethoxy-pyridin-3-ylmethyl)-amino]-phenyl}-butan-1-one], the pEC50 was 5.00 to 6.00. With `CCCC(=O)c1ccc(NCc2cccnc2-c2ccsc2)cc1` [Example 321, 1-{4-[(2-Thiophen-3-yl-pyridin-3-ylmethyl)-amino]-phenyl}-butan-1-one] the pEC50 was 5.00 to 6.00.
